As a reminder, the Papp is the rate of passage across a membrane or cell layer, normalised by area and donor concentration. Lower therefore signals poor permeation.

The nature of one data set: in vitro. The settings on record: guinea pig, Permeability Coefficient (cm/hr) ± SEM, saturated dodecanol, Example 13.
For data set [1] the following is noted: for amount of higher alcohol necessary to reach a small permanent visible excess: H^3-mannitol in 30% v/v aqueous ethanol.
Method: Trace amounts of H^3 -mannitol were added to 10 ml aliquots of a 33% (v/v) ethanol/water solution. The saturating amount of octanol for this solution was determined to be 45 μl per aliquot. Varying amounts of octanol were added to each aliquot as shown below. The aliquots were warmed and kept at 32° C. until use.

SMILES strings stand for the structures. Structures can show the parent of a compound that is named as a salt.

With `COc1ccc([C@@H]2Sc3ccccc3N(CCN(C)C)C(=O)[C@@H]2OC(C)=O)cc1` [Diltiazem Hydrochloride], the Papp at 8 h in “in vitro” (20% v/v ethanol) is 0.0336 ×10⁻⁶ cm/s; in the data set “in vitro” (30% v/v ethanol), 0.0925 ×10⁻⁶ cm/s; in “in vitro” (40% v/v ethanol), 0.319 ×10⁻⁶ cm/s; in the data set “in vitro” (50% v/v ethanol) it was 0.294 ×10⁻⁶ cm/s; in “in vitro” (no ethanol), 0.00764 ×10⁻⁶ cm/s.
In the case of `CCCCCCCCCCO` [decanol], the “amount of higher alcohol necessary to reach a small permanent visible excess” value (shortened to “amount of higher alcohol necessary”) in data set [1] is recorded as about 10 μl/ml.
The same measure, in the same setting: to `CCCCCCCCCCCCO` [dodecanol] belongs about 10 μl/ml; to `CCCCCCCCCCCCCCCCO` [hexadecanol], about 0.1 mg/mL; to `CCCCCCCCCCCCCCCCCCO` [octadecanol], about 0.1 mg/mL.
Consider `CCCCCCCCO` [octanol], for which the “saturating amount of octanol” value in data set [1] (10 ml aliquots of 33% (v/v) ethanol/water with trace H^3-mannitol) was determined as 45 μl per aliquot. In addition, in data set [1], the “amount of higher alcohol necessary” value is recorded as about 20 μl/ml.
Consider `CCCCCO` [pentanol], for which the “amount of higher alcohol necessary” value in data set [1] is 100 μl/ml.
Still for that read-out and setting: to `CCCCCCCCCCCCCCO` [tetradecanol] belongs about 4 mg/mL; to `CCCCCCCCCCCCCO` [tridecanol], about 4 mg/mL.

For the origin of these results see patent US5149719A, “Composition for transdermal penetration of medicaments” (priority 1990, dated 1992).
